{"source": "patent US12318449B2", "about": "(Rutgers, The State University of New Jersey, priority 2012, dated 2025)", "key": {"[1]": {"system": "C8161 human melanoma cells", "assay": "Cell cycle analysis (propidium iodide flow cytometry)", "format": "cell-based", "settings": "for Sub G1: 8 Gy, 25 uM riluzole, average of 3 experiments", "protocol": "Cell pellets were fixed by drop-wise addition of ice-cold 70% ethanol and incubated overnight at 4° C. Fixed cells were washed twice with ice-cold PBS and resuspended in […] PBS. […] The experiment was repeated 3 times."}, "U87MG glioma cells": {"system": "U87MG glioma cells", "assay": "Western immunoblot for cleaved PARP", "format": "cell-based", "settings": "riluzole 10, 25 or 50 μM for 4 days versus NT or vehicle"}, "D3-vec cells": {"system": "D3-vec cells", "assay": "Immunofluorescence for 53BP1 and γ-H2AX foci in apoptosis-deficient cells", "format": "cell-based, mouse", "settings": "empty vector controls; treated for various time points up to 24 hours", "from_the_text": "(§1) These treated cells were stained with γ-H2AX and 53BP1, both known to localize at sites of DNA double stranded breaks."}, "D3-mGRM1 cells": {"system": "D3-mGRM1 cells", "assay": "Immunofluorescence for 53BP1 and γ-H2AX foci in apoptosis-deficient cells", "format": "cell-based, mouse", "settings": "treated for various time points up to 24 hours", "from_the_text": "as §1"}, "U118MG cell line": {"system": "U118MG cell line", "assay": "Western immunoblot for cleaved PARP", "format": "cell-based", "settings": "experiments repeated as for U87MG"}, "glioma cells": {"system": "glioma cells", "assay": "γ-H2AX Western blot and γ-H2AX/53BP1 immunofluorescence", "format": "cell-based"}, "C8161 xenografts [2]": {"system": "C8161 xenografts", "assay": "Murine xenograft model, cleaved caspase-3 immunohistochemistry", "format": "in vivo, nude mice", "protocol": "hGRM-positive C8161 cells (1×10^6) were injected into the flanks of 6-week-old nude mice (Taconic). […] At 24, 48, and 72 hours after the second dose of irradiation, mice in each group were sacrificed and tumor samples were removed. Half of the samples were snap-frozen for further molecular studies, and the other half was fixed in formalin for histologic analysis. The antibody to activated caspase-3 was utilized to visualize apoptotic cells. The average number of apoptotic cells per tumor was calculated by counting the apoptotic cells in 10 random highpowered fields.\nCleaved caspase-3 immunohistochemistry. Immunodeficient nude mice were purchased from Taconic. C8161 cells were injected into flanks bilaterally at 10^6 cells per site. Tumor size was measured with a vernier caliper. When tumor volumes reached 6 to 10 mm^3 the mice were randomly grouped into various treatments. Each treatment group consisted of 10 mice. […] At 24, 48, and 72 hours after the second dose of irradiation, mice in each group were sacrificed and tumor samples were removed. Half of the samples were snap-frozen for further molecular studies, and the other half was fixed in formalin for histologic analysis. The antibody to activated caspase-3 was utilized to visualize apoptotic cells."}, "[3]": {"system": "hGRM1-positive UACC903 human melanoma cells", "settings": "riluzole for 24 hours, then ionizing radiation; PE=19%", "protocol": "(§2) hGRM1-expressing C8161 [wild type (wt) for RAS and BRAF] and UACC903 (wt for RAS, mutated B-RAF, V600E) human melanoma cell line and hGRM1-negative melanoma cell line UACC930 (wt for RAS, mutated B-RAF, V600E), were obtained from Dr. Mary J. C. Hendrix (Children's Memorial Research Center, Chicago, IL) and Dr. Jeffrey M. Trent (Translational Genomics Research Center, Phoenix, AZ), respectively. Cells were cultured in monolayer at 37° C. in a 5% CO2 humidified incubator, in RPMI (InVitrogen) supplemented with 10% fetal bovine serum (Sigma).\n(§3) Cells were trypsinized for retrieval and plated on 100-mm plates and allowed to attach overnight for 20 hours. […] Cells were irradiated by a Gamma Cell 40 Exactor (MDS Nordion) irradiator and then incubated overnight (20 hours). Drug was aspirated and culture media replaced at 20 hours. Plates were then monitored for 10 to 21 days and stained with crystal violet for visual counting. Colonies which contained more than 50 cells were scored as clonogenic survivors.\n(§4) All clonogenic assays and cell cycle analyses experiments were repeated 3 times and the triplicate results are shown."}, "[4]": {"system": "hGRM1-positive C8161 human melanoma cells", "settings": "riluzole for 24 hours, then ionizing radiation; PE=12%", "protocol": "as §2, §3, §4"}, "LN229 cell line": {"system": "LN229 cell line", "assay": "Western immunoblot for cleaved PARP", "format": "cell-based", "settings": "experiments repeated as for U87MG"}, "U87MG cells": {"system": "U87MG cells", "assay": "ROS measurement by flow cytometry (2′,7′-dichlorodihydrofluorescein diacetate)", "format": "cell-based", "settings": "10 uM riluzole for various time periods versus vehicle", "protocol": "(§5) The cells were incubated with 2′,7′-dichlorodihydrofluorescein diacetate (Sigma) for 20 min at 37 deg."}, "LN229 cells": {"system": "LN229 cells", "assay": "ROS measurement by flow cytometry (2′,7′-dichlorodihydrofluorescein diacetate)", "format": "cell-based", "settings": "10 uM riluzole for various time periods versus vehicle", "protocol": "as §5"}, "[5]": {"system": "C8161 hGRM1-positive human melanoma cells", "settings": "riluzole plus irradiation (2 or 4 Gy) compared with irradiation alone", "procedure": "Both sets of cells were irradiated at 2 or 4 Gy. Lysates were made at 24, 48, or 72 hours after irradiation. Protein lysates were prepared by washing cells with PBS, adding extraction buffer [50 mmol/L Tris, 150 mmol/L NaCl, 1 mmol/L EDTA (pH 8.0)], 1% NP40, 5% glycerol, 1 mmol/L Dithiothreitol, complete protease inhibitor cocktail (Roche), and phosphatase inhibitors I and II (Sigma). The samples were resolved in 10% gels (Bio-Rad), after which they were transferred onto nitrocellulose membranes. Membranes were blocked with 5% milk and 1% bovine serum albumin and then probed with antibodies against PARP and cleaved caspase-3. The same blot was probed with alpha-tubulin to show equal loading.\nCells were either treated with IR at 2 Gy (2) or 4 GY (4) or not treated (0). Lysates were made immediately after IR or at 24 hours after IR and probed with anti-PARP and anticleaved PARP antibodies to assess apoptotic cells. The same blot was probed with a-tubulin to show equal loading."}, "C8161 xenografts [6]": {"system": "C8161 xenografts", "protocol": "Immunodeficient nude mice were purchased from Taconic. C8161 cells were injected into flanks bilaterally at 10^6 cells per site."}}, "data": [{"smiles": "C=C1C[C@@H]2COC(=O)[C@]2(Cc2ccc3ccccc3c2)C1", "note": "[BAY 36-7620]", "values": [{"measurement": "G2/M synchronization", "setting": "[1]; treatment of C8161 cells with the compound", "result": "no G2/M synchronization"}]}, {"smiles": "Nc1nc2ccc(OC(F)(F)F)cc2s1", "note": "[Riluzole, riluzole]", "values": [{"measurement": "levels of cleaved PARP", "setting": "U87MG glioma cells", "result": "higher levels of cleaved PARP"}, {"measurement": "53BP1 and γ-H2AX foci (DNA double stranded breaks)", "setting": "D3-vec cells", "result": "not vector controls"}, {"measurement": "53BP1 and γ-H2AX foci (DNA double stranded breaks)", "setting": "D3-mGRM1 cells", "result": "induction of clear nuclear 53BP1 and γ-H2AX foci"}, {"measurement": "levels of cleaved PARP", "setting": "U118MG cell line", "result": "identical results"}, {"measurement": "co-localization of γ-H2AX and 53BP1 (immunofluorescence)", "setting": "glioma cells", "result": "Co-localization was demonstrated"}, {"measurement": "γ-H2AX Western blot (DNA damage)", "setting": "glioma cells; cell lysates", "result": "caused DNA damage"}, {"measurement": "number of apoptotic tumor cells (immunohistochemistry)", "setting": "C8161 xenografts [2]; riluzole 10 mg/kg oral gavage plus 2 x 4 Gy irradiation versus irradiation alone or control groups, P<0.001", "result": "significant increase"}, {"measurement": "number of apoptotic tumor cells (immunohistochemistry)", "setting": "C8161 xenografts [2]; riluzole plus irradiation versus riluzole alone, 24- and 48-hour time points, P<0.01", "result": "significant difference"}, {"measurement": "Sub G1", "setting": "[1]; Radiation followed by Riluzole", "result": 24.91}, {"measurement": "Sub G1", "setting": "[1]; Riluzole followed by Radiation", "result": 3.59}, {"measurement": "G2/M fraction", "setting": "[1]; cells treated with riluzole prior to irradiation", "result": "clear spike in the G2/M fraction"}, {"measurement": "G2/M fraction", "setting": "[1]; reverse sequence (irradiation before riluzole)", "result": "no such effect"}, {"measurement": "dose-modifying factor (DMF)", "setting": "[3]", "result": 1.30}, {"measurement": "dose-modifying factor (DMF)", "setting": "[4]", "result": 1.48}, {"measurement": "levels of cleaved PARP", "setting": "LN229 cell line", "result": "identical results"}, {"measurement": "ROS (oxidation of fluorochrome fluorescence)", "setting": "U87MG cells", "result": "enhanced ROS"}, {"measurement": "ROS (oxidation of fluorochrome fluorescence)", "setting": "LN229 cells", "result": "enhanced ROS"}, {"measurement": "levels of cleaved PARP", "setting": "[5]", "result": "further augmented levels of cleaved PARP"}, {"measurement": "effect of the combination on growth of xenografts", "setting": "C8161 xenografts [6]; riluzole (10 mg/kg) plus IR, 25 days of treatment", "result": "at least an additive effect"}, {"measurement": "DNA damage as measured by foci of gH2AX on immunohistochemistry", "setting": "C8161 xenografts [6]; xenograft harvests, riluzole plus irradiation", "result": "markedly enhanced DNA damage"}]}]}
